Measured values taken from patent US11161881B2, “Composition comprising a peptide and an inhibitor of viral neuraminidase” (priority 2010, dated 2021).

What was measured:
[1] = system: interleukin-6 (IL-6) release from fresh human whole blood; assay: Ex vivo release of interleukin-6 from fresh human whole blood (ELISA); type: cell-based; details: for concentration of IL-6: human whole blood cultures, 24 hours, n = 5
Excerpt: Ex vivo assessment of proinflammatory properties of the AP301 peptide in human whole blood. […] In this study, fresh human whole blood has been used, as it represents an approved predictive model system for the assessment of inflammatory response in vivo.
Summary of methodology. It was the goal of this study to determine the proinflammatory signalling capacity of the peptide AP301. Whole blood cultures were used and the secretion of interleukin-6 (IL-6), a very sensitive marker for proinflammatory stimulation, was quantified by ELISA.
Test system 25 ml of freshly taken heparinized blood from • 5 healthy volunteers (HV) was used in the tests. […]
Whole blood cultures. Whole blood (WB) cultures are performed by pipetting 1 ml WB into wells of 24-well-plates. In each experiment, unstimulated and control-stimulated cultures were included.
If possible, the substances and stimulants to be investigated were always added in an identical volume to each well of a given experiment, which is not greater than 10% of the total volume contained in a well. Unstimulated controls received PBS. Volume adjustments and dilutions for different treatments were also done with PBS.
The content of each well was mixed and the plates incubated at 37° C. and 5% CO2 for 24 hours. After incubation the content of each well was transferred to a fresh 1.5 ml microtube and centrifuged at 8,000-9,000×g for 15 minutes. The supernatant of each sample was transferred individually to two 1.5 ml microtubes and kept at −20° C. until use.
Detection of interleukin-6. Interleukin-6 was quantified by a specific ELISA (Human IL-6 ELISA Set, BD Biosciences, Cat. No. 555220) employing an anti-human IL-6 antibody as capture antibody, a biotinylated anti-human IL-6 detection antibody, avidin-horseradish peroxidase conjugate as enzyme reagent and recombinant IL-6 as standard. Absorbance measurement was performed at 450 nm using the Packard FusionReader.
Data analysis. The results for each plate were stored and evaluated using the FusionDataAnalysis Software. […]

[2] = system: influenza strain A (PR8/34); assay: Relative lung weight as a measure of pulmonary inflammation in mice infected with influenza A; type: in vivo, mice (strain C57BL/6); details: repeated on days 2 and 4
Description: Infection with influenza virus causes the development of a pulmonary inflammation. Laboratory mice (strain C57BL/6, 8 weeks old) were infected per-nasal with the influenza strain A (PR8/34) at a dose of 150 PFU. On days 3, 5, 7 and 9 following the infection, the lungs were taken out of 8 mice, respectively, and the relative lung weight was determined as a measure of the pulmonary inflammation.
Treatment of the pulmonary inflammation by administering the neuraminidase inhibitor or administering a combination of neuraminidase inhibitor and peptide AP301. Laboratory mice (strain C57BL/6, 8 weeks old) were infected per-nasal with the influenza strain A (PR8/34) at a dose of 150 PFU. Subsequently, each test animal received an oral administration of 10 mg/kg Oseltamivir (neuraminidase inhibitor) and an intratracheal administration of 10 μg/test animal of peptide AP301. The treatment was repeated on test days 2 and 4. On days 5, 7 and 9 following the infection, the lungs were taken out of 30 mice, respectively, and the relative lung weight was determined as a measure of the pulmonary inflammation. The results are shown graphically in FIG. 2. […]
On days 7 and 9 following the infection, the lungs were taken out of 20 mice, respectively, and the relative lung weight was determined as a measure of the pulmonary inflammation. […]

## C[C@@H]1NC(=O)CNC(=O)[C@H](CCC(=O)O)NC(=O)[C@@H]2CCCN2C(=O)[C@H]([C@@H](C)O)NC(=O)[C@H](CCC(=O)O)NC(=O)[C@H](CCCNC(=N)N)NC(=O)[C@H](CCC(N)=O)NC(=O)CNC(=O)[C@@H](N)CSSC[C@@H](C(=O)O)NC(=O)[C@H](Cc2ccc(O)cc2)NC(=O)[C@H](Cc2c[nH]c3ccccc23)NC(=O)[C@@H]2CCCN2C(=O)[C@H](CCCCN)NC(=O)[C@H](C)NC(=O)[C@H](CCC(=O)O)NC1=O [AP301, (NH2) Cys-Gly-Gln-Arg-Glu-Thr-Pro-Glu-Gly-Ala-Glu-Ala-Lys-Pro-Trp-Tyr-Cys (COOH)]
[1]; all concentrations tested (10 μg/ml to 1 ng/ml for peptide; high and low doses of LPS), five healthy donors
  induction of IL-6 secretion (in words): did not induce any detectable level of IL-6 secretion
[1]; ex vivo human whole blood model
  TNF receptor binding activity / proinflammatory response (concluded from IL-6 release): does not exhibit any TNF receptor binding activity
[1]; test item concentration 1 ng/ml
  concentration of IL-6: less than 0.5 pg/ml
[1]; test item concentration 3 ng/ml
  concentration of IL-6: less than 0.5 pg/ml
[1]; test item concentration 1 mg/ml
  concentration of IL-6: less than 0.5 pg/ml
[1]; test item concentration 10 mg/ml
  concentration of IL-6: less than 0.5 pg/ml

## CCOC(=O)C1=C[C@@H](OC(CC)CC)[C@H](NC(C)=O)[C@@H](N)C1 [Oseltamivir]
[2]; Example 2: 150 PFU per-nasal, Oseltamivir 10 mg/kg oral, AP301 10 μg/test animal intratracheal, lungs on days 5, 7 and 9
  reduction of pulmonary inflammation, as measured by the lung weight: just a moderate effect on reducing the pulmonary inflammation

## CC(=O)N[C@H]1[C@H]([C@H](O)[C@H](O)CO)OC(C(=O)O)=C[C@@H]1N=C(N)N [Zanamivir]
[2]; Example 4: 150 PFU per-nasal, Zanamivir 1.5 mg/kg nasal, AP301 50 μg/test animal intratracheal, lungs on days 7 and 9
  reduction of pulmonary inflammation, as measured by the lung weight: just a moderate effect on reducing the pulmonary inflammation
